# Reference: PubChem BioAssay (NCI)
#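 In this assay, cells in 96-well plates receive the compound at five concentrations for 48 hours. Endpoints are linearly interpolated between the surrounding concentrations. GI50 = concentration required for 50% inhibition of growth. Definition used: TGI = concentration required for complete inhibition of growth.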
# Key:
# Assay in all cases: growth of human tumour cells (NCI), 48 h
# [1] = test system: M14 melanoma
# [2] = test system: SR leukemia
# [3] = test system: MOLT-4 leukemia
# [4] = test system: K-562 leukemia
# [5] = test system: CAKI-1 renal
# [6] = test system: SK-OV-3 ovarian
# [7] = test system: CCRF-CEM leukemia
# [8] = test system: OVCAR-4 ovarian
# [9] = test system: SK-MEL-5 melanoma
# [10] = test system: RPMI-8226 leukemia
# [11] = test system: MCF7 breast
# [12] = test system: SF-539 CNS
# [13] = test system: U251 CNS
# [14] = test system: HCT-15 colon
# [15] = test system: UACC-62 melanoma
# [16] = test system: HS 578T breast
# [17] = test system: UO-31 renal
# [18] = test system: OVCAR-3 ovarian
# [19] = test system: COLO 205 colon
# [20] = test system: MDA-MB-435
# [21] = test system: RXF 393 renal
# [22] = test system: HCT-116 colon
# [23] = test system: BT-549 breast
# [24] = test system: OVCAR-8 ovarian
# [25] = test system: NCI-H23 lung
# [26] = test system: SNB-75 CNS
# [27] = test system: HT29 colon
# [28] = test system: SF-268 CNS
# [29] = test system: SW-620 colon
# [30] = test system: IGROV1 ovarian
# [31] = test system: NCI-H460 lung
# [32] = test system: NCI-H522 lung
# [33] = test system: A549 NSCLC
# [34] = test system: ACHN renal
# [35] = test system: SNB-19 CNS
# [36] = test system: MALME-3M melanoma
# [37] = test system: HOP-92 NSCLC
# [38] = test system: TK-10 renal
# [39] = test system: 786-0 renal
# [40] = test system: UACC-257 melanoma
# [41] = test system: PC-3 prostate
# [42] = test system: OVCAR-5 ovarian
# [43] = test system: NCI/ADR-RES ovarian
# [44] = test system: KM12 colon
# [45] = test system: SN12C renal
# [46] = test system: SK-MEL-28 melanoma
# [47] = test system: SF-295 CNS
# [48] = test system: DU-145 prostate
# [49] = test system: SK-MEL-2 melanoma
# [50] = test system: HOP-62 NSCLC
# [51] = test system: A498 renal
# [52] = test system: HL-60(TB) leukemia
# [53] = test system: T-47D breast
# [54] = test system: HCC-2998 colon
# [55] = test system: LOX IMVI melanoma
# [56] = test system: NCI-H226 lung
# [57] = test system: MDA-MB-231 breast
# [58] = test system: EKVX NSCLC
compound,measurement,setting,value
Cn1ncnc1C1c2n[nH]c(=O)c3cc(F)cc(c23)NC1c1ccc(F)cc1 (stereo not given),GI50,[1],3.52 µM
same,TGI,[1],> 100 µM
same,GI50,[2],< 26.5 nM
same,TGI,[2],> 62.5 µM
same,GI50,[3],3.25 µM
same,TGI,[3],> 100 µM
same,GI50,[4],> 100 µM
same,TGI,[4],> 100 µM
same,GI50,[5],9.37 µM
same,TGI,[5],> 100 µM
same,GI50,[6],> 42.7 µM
same,TGI,[6],> 100 µM
same,GI50,[7],3.13 µM
same,TGI,[7],> 100 µM
same,GI50,[8],12.7 µM
same,TGI,[8],> 100 µM
same,GI50,[9],> 100 µM
same,TGI,[9],> 100 µM
same,GI50,[10],> 100 µM
same,TGI,[10],> 100 µM
same,GI50,[11],1570 nM
same,TGI,[11],> 100 µM
same,GI50,[12],5.39 µM
same,TGI,[12],> 100 µM
same,GI50,[13],2180 nM
same,TGI,[13],> 100 µM
same,GI50,[14],> 100 µM
same,TGI,[14],> 100 µM
same,GI50,[15],> 100 µM
same,TGI,[15],> 100 µM
same,GI50,[16],> 100 µM
same,TGI,[16],> 100 µM
same,GI50,[17],11.9 µM
same,TGI,[17],> 100 µM
same,GI50,[18],> 100 µM
same,TGI,[18],> 100 µM
same,GI50,[19],> 100 µM
same,TGI,[19],> 100 µM
same,GI50,[20],> 100 µM
same,TGI,[20],> 100 µM
same,GI50,[21],22.2 µM
same,TGI,[21],> 100 µM
same,GI50,[22],25.8 µM
same,TGI,[22],> 100 µM
same,GI50,[23],> 69.9 µM
same,TGI,[23],> 100 µM
same,GI50,[24],> 100 µM
same,TGI,[24],> 100 µM
same,TGI,[25],> 100 µM
same,GI50,[26],9.8 µM
same,TGI,[26],> 100 µM
same,GI50,[27],> 100 µM
same,TGI,[27],> 100 µM
same,GI50,[28],3.3 µM
same,TGI,[28],> 100 µM
same,GI50,[29],> 41 µM
same,TGI,[29],> 100 µM
same,GI50,[30],> 100 µM
same,TGI,[30],> 100 µM
same,GI50,[31],193 nM
same,TGI,[31],> 100 µM
same,GI50,[32],> 100 µM
same,TGI,[32],> 100 µM
same,GI50,[33],7.9 µM
same,TGI,[33],> 100 µM
same,GI50,[34],29.4 µM
same,TGI,[34],> 100 µM
same,GI50,[35],11.2 µM
same,TGI,[35],> 100 µM
same,GI50,[36],> 100 µM
same,TGI,[36],> 100 µM
same,GI50,[37],39.9 µM
same,TGI,[37],> 100 µM
same,GI50,[38],> 34.2 µM
same,TGI,[38],> 100 µM
same,GI50,[39],> 100 µM
same,TGI,[39],> 100 µM
same,GI50,[40],> 100 µM
same,TGI,[40],> 100 µM
same,GI50,[41],> 100 µM
same,TGI,[41],> 100 µM
same,GI50,[42],> 100 µM
same,TGI,[42],> 100 µM
same,GI50,[43],> 100 µM
same,TGI,[43],> 100 µM
same,GI50,[44],> 100 µM
same,TGI,[44],> 100 µM
same,GI50,[45],4.43 µM
same,TGI,[45],> 100 µM
same,GI50,[46],> 100 µM
same,TGI,[46],> 100 µM
same,GI50,[47],1010 nM
same,TGI,[47],> 100 µM
same,GI50,[48],4.14 µM
same,TGI,[48],> 100 µM
same,GI50,[49],> 100 µM
same,TGI,[49],> 100 µM
same,GI50,[50],7.79 µM
same,TGI,[50],> 100 µM
same,GI50,[51],5 µM
same,TGI,[51],> 94.3 µM
same,GI50,[52],4.86 µM
same,TGI,[52],> 100 µM
same,GI50,[53],> 100 µM
same,TGI,[53],> 100 µM
same,GI50,[54],> 100 µM
same,TGI,[54],> 100 µM
same,GI50,[55],6.63 µM
same,TGI,[55],> 100 µM
same,GI50,[56],> 100 µM
same,TGI,[56],> 100 µM
same,GI50,[57],> 100 µM
same,TGI,[57],> 100 µM
CNC(=O)c1cncc(/C=C/c2c(Cl)cccc2Cl)c1,GI50,[1],> 23.4 µM
same,TGI,[1],> 25 µM
same,GI50,[3],> 21.9 µM
same,TGI,[3],> 25 µM
same,GI50,[4],8.14 µM
same,TGI,[4],> 25 µM
same,GI50,[5],13.6 µM
same,TGI,[5],> 25 µM
same,GI50,[6],> 25 µM
same,TGI,[6],> 25 µM
same,GI50,[7],> 25 µM
same,TGI,[7],> 25 µM
same,GI50,[8],21.9 µM
same,TGI,[8],> 25 µM
same,GI50,[9],14.5 µM
same,TGI,[9],> 25 µM
same,GI50,[10],> 25 µM
same,TGI,[10],> 25 µM
same,GI50,[11],> 25000 nM
same,TGI,[11],> 25 µM
same,GI50,[12],9.43 µM
same,TGI,[12],> 25 µM
same,GI50,[13],> 25000 nM
same,TGI,[13],> 25 µM
same,GI50,[14],> 22.4 µM
same,TGI,[14],> 25 µM
same,GI50,[15],> 19.8 µM
same,TGI,[15],> 25 µM
same,GI50,[16],7.17 µM
same,TGI,[16],> 21.6 µM
same,GI50,[17],6.69 µM
same,TGI,[17],> 25 µM
same,GI50,[18],20.9 µM
same,TGI,[18],> 25 µM
same,GI50,[19],> 25 µM
same,TGI,[19],> 25 µM
same,GI50,[20],6.88 µM
same,TGI,[20],> 25 µM
same,GI50,[21],8.89 µM
same,TGI,[21],> 25 µM
same,GI50,[22],> 25 µM
same,TGI,[22],> 25 µM
same,GI50,[23],> 25 µM
same,TGI,[23],> 25 µM
same,GI50,[24],> 25 µM
same,TGI,[24],> 25 µM
same,GI50,[25],> 25 µM
same,TGI,[25],> 25 µM
same,GI50,[26],2.89 µM
same,TGI,[26],> 16.1 µM
same,GI50,[27],15.1 µM
same,TGI,[27],> 25 µM
same,GI50,[28],22.7 µM
same,TGI,[28],> 25 µM
same,GI50,[29],> 25 µM
same,TGI,[29],> 25 µM
same,GI50,[30],> 17.9 µM
same,TGI,[30],> 25 µM
same,GI50,[31],> 25000 nM
same,TGI,[31],> 25 µM
same,GI50,[32],8.38 µM
same,TGI,[32],> 25 µM
same,GI50,[33],> 25 µM
same,TGI,[33],> 25 µM
same,GI50,[34],> 23.2 µM
same,TGI,[34],> 25 µM
same,GI50,[35],> 22.4 µM
same,TGI,[35],> 25 µM
same,GI50,[36],12.9 µM
same,TGI,[36],> 25 µM
same,GI50,[37],2.31 µM
same,TGI,[37],> 25 µM
same,GI50,[38],12.9 µM
same,TGI,[38],> 25 µM
same,GI50,[39],> 25 µM
same,TGI,[39],> 25 µM
same,GI50,[40],24.7 µM
same,TGI,[40],> 25 µM
same,GI50,[58],> 25 µM
same,TGI,[58],> 25 µM
same,GI50,[41],> 21.6 µM
same,TGI,[41],> 25 µM
same,GI50,[42],> 25 µM
same,TGI,[42],> 25 µM
same,GI50,[43],> 21.2 µM
same,TGI,[43],> 25 µM
same,GI50,[44],> 22.4 µM
same,TGI,[44],> 25 µM
same,GI50,[45],> 21 µM
same,TGI,[45],> 25 µM
same,GI50,[46],> 25 µM
same,TGI,[46],> 25 µM
same,GI50,[47],> 12800 nM
same,TGI,[47],> 25 µM
same,GI50,[48],> 25 µM
same,TGI,[48],> 25 µM
same,GI50,[50],> 25 µM
same,TGI,[50],> 25 µM
same,GI50,[51],7.44 µM
same,TGI,[51],> 25 µM
same,GI50,[52],> 25 µM
same,TGI,[52],> 25 µM
same,GI50,[53],> 18.1 µM
same,TGI,[53],> 25 µM
same,GI50,[54],> 25 µM
same,TGI,[54],> 25 µM
same,GI50,[55],> 19.6 µM
same,TGI,[55],> 25 µM
same,GI50,[56],> 24.1 µM
same,TGI,[56],> 25 µM
same,GI50,[57],> 15.8 µM
same,TGI,[57],> 25 µM
